Experimental data reported in article PMC4774911, “Biochemical Screening of Five Protein Kinases from Plasmodium falciparum against 14,000 Cell-Active Compounds” (PLoS ONE, 2016).
“And” between values parts separate entries of the source, which are not always exact repeats. Equal entries are not always repeated.

Experiments:
Test in all cases: biochemical
Parameters in all cases: endogenous in cells; host or cells: K562 cell extract; species or system K562 (extract); replicate k of n = 2 (each experiment ID is one independent experiment; two experiment IDs per compound)
Details in all cases: read-out: KDapp
[1] = target: T1, CHEK1 (Homo sapiens, UniProt O14757)
T1 sequence (O14757 1-476): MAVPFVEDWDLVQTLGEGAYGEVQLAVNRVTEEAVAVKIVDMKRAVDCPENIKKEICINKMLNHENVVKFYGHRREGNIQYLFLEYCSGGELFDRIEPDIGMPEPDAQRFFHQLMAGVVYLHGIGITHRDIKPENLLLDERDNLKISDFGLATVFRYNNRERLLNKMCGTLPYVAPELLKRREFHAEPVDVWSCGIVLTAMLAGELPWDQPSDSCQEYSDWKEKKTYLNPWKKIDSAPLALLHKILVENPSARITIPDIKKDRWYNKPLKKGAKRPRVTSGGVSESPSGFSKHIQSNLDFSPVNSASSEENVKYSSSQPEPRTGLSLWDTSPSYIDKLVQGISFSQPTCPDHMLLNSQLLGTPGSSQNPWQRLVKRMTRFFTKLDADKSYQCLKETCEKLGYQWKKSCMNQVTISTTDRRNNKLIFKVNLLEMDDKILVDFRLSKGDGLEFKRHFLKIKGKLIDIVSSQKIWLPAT

[2] = target: PIM1 (Homo sapiens, UniProt P11309)
PIM1, sequence (P11309 whole entry): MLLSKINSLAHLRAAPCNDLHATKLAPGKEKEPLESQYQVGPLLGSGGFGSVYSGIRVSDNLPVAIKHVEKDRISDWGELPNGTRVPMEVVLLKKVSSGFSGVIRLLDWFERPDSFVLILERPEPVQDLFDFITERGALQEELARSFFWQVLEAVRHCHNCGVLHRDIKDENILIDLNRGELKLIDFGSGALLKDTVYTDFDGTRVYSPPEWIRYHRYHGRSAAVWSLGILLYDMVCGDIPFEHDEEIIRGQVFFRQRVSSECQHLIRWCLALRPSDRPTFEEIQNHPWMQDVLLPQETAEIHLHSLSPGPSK

[3] = target: T2, TAOK2 (Homo sapiens, UniProt Q9UL54)
T2 sequence (Q9UL54 1-1235): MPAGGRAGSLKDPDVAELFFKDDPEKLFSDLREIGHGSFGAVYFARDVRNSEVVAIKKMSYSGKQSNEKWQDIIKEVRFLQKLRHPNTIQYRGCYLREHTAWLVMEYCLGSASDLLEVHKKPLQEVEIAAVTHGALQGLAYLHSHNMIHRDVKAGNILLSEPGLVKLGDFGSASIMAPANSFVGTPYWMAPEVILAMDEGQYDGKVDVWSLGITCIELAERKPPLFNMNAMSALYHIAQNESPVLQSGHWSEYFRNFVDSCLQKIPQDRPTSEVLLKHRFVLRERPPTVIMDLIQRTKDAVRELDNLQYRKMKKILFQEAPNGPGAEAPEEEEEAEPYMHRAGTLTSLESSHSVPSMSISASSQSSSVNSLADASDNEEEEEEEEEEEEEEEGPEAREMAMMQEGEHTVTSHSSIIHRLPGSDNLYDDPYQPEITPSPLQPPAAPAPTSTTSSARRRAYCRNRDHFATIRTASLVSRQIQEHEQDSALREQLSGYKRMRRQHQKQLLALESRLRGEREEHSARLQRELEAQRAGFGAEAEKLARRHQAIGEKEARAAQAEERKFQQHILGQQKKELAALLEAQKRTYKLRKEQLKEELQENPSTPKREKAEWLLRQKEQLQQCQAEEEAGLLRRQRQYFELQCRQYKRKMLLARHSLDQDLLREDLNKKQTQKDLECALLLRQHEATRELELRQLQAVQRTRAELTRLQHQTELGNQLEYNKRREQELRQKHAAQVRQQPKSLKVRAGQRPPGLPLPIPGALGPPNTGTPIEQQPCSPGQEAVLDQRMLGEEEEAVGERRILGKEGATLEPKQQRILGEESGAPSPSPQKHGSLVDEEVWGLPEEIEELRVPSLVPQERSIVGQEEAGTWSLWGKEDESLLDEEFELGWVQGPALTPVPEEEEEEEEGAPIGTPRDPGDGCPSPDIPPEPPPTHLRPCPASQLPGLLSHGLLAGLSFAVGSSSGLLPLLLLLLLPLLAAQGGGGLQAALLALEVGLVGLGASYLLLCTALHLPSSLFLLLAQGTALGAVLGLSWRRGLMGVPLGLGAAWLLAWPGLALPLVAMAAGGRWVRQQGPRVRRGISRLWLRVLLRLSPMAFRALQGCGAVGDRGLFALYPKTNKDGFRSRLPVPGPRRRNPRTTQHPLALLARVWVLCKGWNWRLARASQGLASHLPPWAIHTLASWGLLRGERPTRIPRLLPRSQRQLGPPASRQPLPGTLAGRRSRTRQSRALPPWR

For `CN1CCN(c2ccc(Nc3ncc(C#N)c(Nc4ccccc4C(N)=O)n3)cc2)CC1.Cl` [TCMDC-134116], the Kd [1] was 0.092 µM, the Kd [2] was 3.56 µM and 2.97 µM and the Kd [3] was 0.274 µM.
